From patent US20240228950A1, “MICROPATTERNED 3D HYDROGEL MICROARRAY IN FLUIDIC CHANNELS FOR SPHEROID-IN-GEL CULTURE” (NANYANG TECHNOLOGICAL UNIVERSITY, priority 2021, published 2024)

Columns and labels:
Format in all cases: cell-based, human
[1] = system: MCF-7 spheroids; assay: Live/dead assay (Calcein-AM/PI) of spheroids-in-gel after drug treatment; conditions: 3 days treatment
Description: For spheroid-in-gel culture on the microarray chip, the PDMS surface was made hydrophilic by a 1-min plasma treatment using a plasma cleaner (PDC-002, Harrick Plasma Inc, Ithaca, NY, USA) to ensure even spreading of hydrogel onto the surface of the island. MCF-7 cells were dissociated and resuspended to a concentration of 1.7 million per mL. Collagen I was added to the suspension at 20 g/mL to enhance spheroid formation. MCF-7 suspension was loaded onto each island (3 L per island), following which the PDMS chip was inverted on top of a water reservoir for a hanging drop culture. […] The chip was maintained 37 °C for 2 days to allow for spheroid formation. […] Upon spheroid formation, the chip was subjected to media evaporation in the 37° C. incubator, following which collagen I (3 mg/mL) or Matrigel (4 mg/mL, Corning. NY, USA) was loaded onto each island (2 L per island) for in-place encapsulation of the spheroid. The chip was incubated at 37° C. for 30 min to allow for gelation of collagen and Matrigel, following which DMEM with 10% FBS was added into the fluidic channel. For co-culture with HUVEC, the channel was coated with polydopamine (1 mg/mL) for 30 min at 37° ° C. to facilitate HUVEC adhesion and growth. The polydopamine solution was prepared by dissolving dopamine hydrochloride (Sigma Aldrich, St. Louis, MO, USA) in Tris-HCl buffer, pH 8.5. The channel was washed with 1× Phosphate Buffer Saline (PBS) three times, following which a suspension of HUVEC (1.5 million/mL) was loaded into the channel and allowed to grow for 2 days to reach confluency. The HUVEC were cultivated under static conditions. […] The cells/spheroids were then imaged using a fluorescence microscope (Nikon Eclipse Ti, Melville, NY, USA). […] Fluorescence intensity of Calcein-AM and PI was analyzed using ImageJ and calculated according to equation (1) below. […] Spheroid area is determined by Hoechst staining. […] The same set of imaging parameters including exposure time and focal plane was used when acquiring the images to minimize inaccuracies in the fluorescence intensity.

[2] = system: HUVEC; assay: Live/dead assay (Calcein-AM/PI) of endothelial cells co-cultured with spheroids after drug treatment; conditions: spheroid co-cultured with HUVEC, 3 days treatment
Description: The chip was incubated at 37° C. for 30 min to allow for gelation of collagen and Matrigel, following which DMEM with 10% FBS was added into the fluidic channel. For co-culture with HUVEC, the channel was coated with polydopamine (1 mg/mL) for 30 min at 37° ° C. to facilitate HUVEC adhesion and growth. The polydopamine solution was prepared by dissolving dopamine hydrochloride (Sigma Aldrich, St. Louis, MO, USA) in Tris-HCl buffer, pH 8.5. The channel was washed with 1× Phosphate Buffer Saline (PBS) three times, following which a suspension of HUVEC (1.5 million/mL) was loaded into the channel and allowed to grow for 2 days to reach confluency. The HUVEC were cultivated under static conditions.
Following that, the cells were stained with VE-Cadherin rabbit anti-human CD144 primary antibody (10 μg/mL, Enzo, Farmingdale, NY, USA) overnight at 4° C. On the next day, the cells were rinsed with 0.1% BSA in PBS three times, and fluorescently labeled with AlexaFluor 488 goat anti-rabbit secondary antibody (20 μg/mL, Life Technologies, Carlsbad, CA, USA) for 4 hr at room temperature. […]
The cells/spheroids were then imaged using a fluorescence microscope (Nikon Eclipse Ti, Melville, NY, USA). […] Fluorescence intensity of Calcein-AM and PI was analyzed using ImageJ and calculated according to equation (1) below.

[3] = system: HUVEC endothelial barrier; assay: Endothelial barrier integrity study (FITC-dextran 70 kDa diffusion into hydrogel island); conditions: HUVEC treated with 100 and 500 nM for 3 days; 60 min dextran incubation
Description: To assess the endothelial barrier integrity after drug treatment in the spheroid-in-gel chip, Collagen I (3 mg/mL) and HUVEC were seeded into the chip as described in example 2C. Sub-confluent HUVEC were treated with Paclitaxel (100 and 500 nM) and cultured for 3 days prior to the barrier permeability test. Fluorescence images were taken before and after 1 hr incubation with 10 μg/mL 70 kDa dextran conjugated with fluorescein isothiocyanate (FITC, Sigma Aldrich, St. Louis, MO, USA) loaded in the fluidic channels. Fluorescence intensities within the hydrogel island were expressed as the fold change (time 60 min over 0 min) and normalized to the untreated control.

CC(=O)O[C@H]1C(=O)[C@@]2(C)[C@H]([C@H](OC(=O)c3ccccc3)[C@]3(O)C[C@H](OC(=O)[C@H](O)[C@@H](NC(=O)c4ccccc4)c4ccccc4)C(C)=C1C3(C)C)[C@]1(OC(C)=O)CO[C@@H]1C[C@@H]2O [Paclitaxel]
MCF-7 death by live/dead staining (Calcein-AM/PI) ([1]; mono-cultured spheroids, PTX 1, 100, 500 nM): higher MCF-7 death with increasing drug concentration | PI intensity of drug-treated spheroids, mono-culture versus co-culture ([1]; with or without HUVEC co-culture, PTX 1, 100, 500 nM): negligible differences in PI intensity | Spheroid Calcein-AM intensity (survival), co-culture versus mono-culture ([1]; with or without HUVEC co-culture, normalized to untreated group): trend of better survival of spheroids in co-cultures as compared to mono-culture, although no significant difference was observed | EC death by live/dead staining (Calcein-AM/PI) [2]: higher EC death | Endothelial barrier integrity based on diffusion of FITC-Dextran 70 kDa into the hydrogel islands [3]: impaired the endothelial barrier integrity
